Laboratory results as given in PubChem BioAssay (NCI).
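Step 1: Grow cells in 96-well plates. Step 2: Expose to compound for 48 hours at 5 concentrations. Step 3: Interpolate endpoints linearly; if unreached, use highest concentration. At the GI50, growth is halved. TGI denotes the concentration required for complete inhibition of growth.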

Experiments:
Test in all cases: growth of human tumour cells (NCI), 48 h
A498 renal = test system: A498 renal
A549 NSCLC = test system: A549 NSCLC
CAKI-1 renal = test system: CAKI-1 renal
HOP-62 NSCLC = test system: HOP-62 NSCLC
HOP-92 NSCLC = test system: HOP-92 NSCLC
HS 578T breast = test system: HS 578T breast
NCI-H522 lung = test system: NCI-H522 lung
NCI/ADR-RES ovarian = test system: NCI/ADR-RES ovarian
OVCAR-5 ovarian = test system: OVCAR-5 ovarian
SF-295 CNS = test system: SF-295 CNS
SK-OV-3 ovarian = test system: SK-OV-3 ovarian
SR leukemia = test system: SR leukemia
TK-10 renal = test system: TK-10 renal
UO-31 renal = test system: UO-31 renal
786-0 renal = test system: 786-0 renal
ACHN renal = test system: ACHN renal
BT-549 breast = test system: BT-549 breast
CCRF-CEM leukemia = test system: CCRF-CEM leukemia
COLO 205 colon = test system: COLO 205 colon
DU-145 prostate = test system: DU-145 prostate
EKVX NSCLC = test system: EKVX NSCLC
HCT-116 colon = test system: HCT-116 colon
HCT-15 colon = test system: HCT-15 colon
HL-60(TB) leukemia = test system: HL-60(TB) leukemia
HT29 colon = test system: HT29 colon
IGROV1 ovarian = test system: IGROV1 ovarian
K-562 leukemia = test system: K-562 leukemia
KM12 colon = test system: KM12 colon
LOX IMVI melanoma = test system: LOX IMVI melanoma
M14 melanoma = test system: M14 melanoma
MALME-3M melanoma = test system: MALME-3M melanoma
MCF7 breast = test system: MCF7 breast
MDA-MB-231 breast = test system: MDA-MB-231 breast
MDA-MB-435 = test system: MDA-MB-435
MOLT-4 leukemia = test system: MOLT-4 leukemia
NCI-H226 lung = test system: NCI-H226 lung
NCI-H23 lung = test system: NCI-H23 lung
NCI-H460 lung = test system: NCI-H460 lung
OVCAR-3 ovarian = test system: OVCAR-3 ovarian
OVCAR-4 ovarian = test system: OVCAR-4 ovarian
OVCAR-8 ovarian = test system: OVCAR-8 ovarian
PC-3 prostate = test system: PC-3 prostate
RPMI-8226 leukemia = test system: RPMI-8226 leukemia
RXF 393 renal = test system: RXF 393 renal
SF-268 CNS = test system: SF-268 CNS
SF-539 CNS = test system: SF-539 CNS
SK-MEL-2 melanoma = test system: SK-MEL-2 melanoma
SK-MEL-28 melanoma = test system: SK-MEL-28 melanoma
SK-MEL-5 melanoma = test system: SK-MEL-5 melanoma
SN12C renal = test system: SN12C renal
SNB-19 CNS = test system: SNB-19 CNS
SNB-75 CNS = test system: SNB-75 CNS
SW-620 colon = test system: SW-620 colon
T-47D breast = test system: T-47D breast
U251 CNS = test system: U251 CNS
UACC-257 melanoma = test system: UACC-257 melanoma
UACC-62 melanoma = test system: UACC-62 melanoma

Compound: S=c1sc2c(Cl)nc(-c3cccnc3)nc2n1-c1ccccc1
- GI50 (A498 renal): > 100 µM
- TGI (A498 renal): > 100 µM
- GI50 (A549 NSCLC): > 100 µM
- TGI (A549 NSCLC): > 100 µM
- GI50 (CAKI-1 renal): 1.67 µM
- TGI (CAKI-1 renal): 3.14 µM
- GI50 (HOP-62 NSCLC): 3.27 µM
- TGI (HOP-62 NSCLC): > 100 µM
- GI50 (HOP-92 NSCLC): 3.18 µM
- TGI (HOP-92 NSCLC): 30.5 µM
- GI50 (HS 578T breast): 4.09 µM
- TGI (HS 578T breast): > 100 µM
- GI50 (NCI-H522 lung): 1.54 µM
- TGI (NCI-H522 lung): 3.1 µM
- GI50 (NCI/ADR-RES ovarian): 3.05 µM
- TGI (NCI/ADR-RES ovarian): > 100 µM
- GI50 (OVCAR-5 ovarian): > 100 µM
- TGI (OVCAR-5 ovarian): > 100 µM
- GI50 (SF-295 CNS): > 100 µM
- TGI (SF-295 CNS): > 100 µM
- GI50 (SK-OV-3 ovarian): > 100 µM
- TGI (SK-OV-3 ovarian): > 100 µM
- GI50 (SR leukemia): 0.556 µM
- TGI (SR leukemia): 4.68 µM
- GI50 (TK-10 renal): > 100 µM
- TGI (TK-10 renal): > 100 µM
- GI50 (UO-31 renal): 1.64 µM
- TGI (UO-31 renal): 3.33 µM

Compound: NC(CSSCC(N)C(=O)O)C(=O)O (stereo not drawn)
- GI50 (786-0 renal): > 100 µM
- TGI (786-0 renal): > 100 µM
- GI50 (A498 renal): > 100 µM
- TGI (A498 renal): > 100 µM
- GI50 (A549 NSCLC): > 100 µM
- TGI (A549 NSCLC): > 100 µM
- GI50 (ACHN renal): > 100 µM
- TGI (ACHN renal): > 100 µM
- GI50 (BT-549 breast): > 100 µM
- TGI (BT-549 breast): > 100 µM
- GI50 (CAKI-1 renal): > 100 µM
- TGI (CAKI-1 renal): > 100 µM
- GI50 (CCRF-CEM leukemia): > 100 µM
- TGI (CCRF-CEM leukemia): > 100 µM
- GI50 (COLO 205 colon): > 100 µM
- TGI (COLO 205 colon): > 100 µM
- GI50 (DU-145 prostate): > 100 µM
- TGI (DU-145 prostate): > 100 µM
- GI50 (EKVX NSCLC): > 100 µM
- TGI (EKVX NSCLC): > 100 µM
- GI50 (HCT-116 colon): > 100 µM
- TGI (HCT-116 colon): > 100 µM
- GI50 (HCT-15 colon): > 100 µM
- TGI (HCT-15 colon): > 100 µM
- GI50 (HL-60(TB) leukemia): > 100 µM
- TGI (HL-60(TB) leukemia): > 100 µM
- GI50 (HOP-62 NSCLC): > 100 µM
- TGI (HOP-62 NSCLC): > 100 µM
- GI50 (HOP-92 NSCLC): > 100 µM
- TGI (HOP-92 NSCLC): > 100 µM
- GI50 (HS 578T breast): > 100 µM
- TGI (HS 578T breast): > 100 µM
- GI50 (HT29 colon): > 100 µM
- TGI (HT29 colon): > 100 µM
- GI50 (IGROV1 ovarian): > 100 µM
- TGI (IGROV1 ovarian): > 100 µM
- GI50 (K-562 leukemia): > 100 µM
- TGI (K-562 leukemia): > 100 µM
- GI50 (KM12 colon): > 100 µM
- TGI (KM12 colon): > 100 µM
- GI50 (LOX IMVI melanoma): > 100 µM
- TGI (LOX IMVI melanoma): > 100 µM
- GI50 (M14 melanoma): > 100 µM
- TGI (M14 melanoma): > 100 µM
- GI50 (MALME-3M melanoma): > 100 µM
- TGI (MALME-3M melanoma): > 100 µM
- GI50 (MCF7 breast): > 100 µM
- TGI (MCF7 breast): > 100 µM
- GI50 (MDA-MB-231 breast): > 100 µM
- TGI (MDA-MB-231 breast): > 100 µM
- GI50 (MDA-MB-435): > 100 µM
- TGI (MDA-MB-435): > 100 µM
- GI50 (MOLT-4 leukemia): > 100 µM
- TGI (MOLT-4 leukemia): > 100 µM
- GI50 (NCI-H226 lung): > 100 µM
- TGI (NCI-H226 lung): > 100 µM
- GI50 (NCI-H23 lung): > 100 µM
- TGI (NCI-H23 lung): > 100 µM
- GI50 (NCI-H460 lung): > 100 µM
- TGI (NCI-H460 lung): > 100 µM
- GI50 (NCI/ADR-RES ovarian): > 100 µM
- TGI (NCI/ADR-RES ovarian): > 100 µM
- GI50 (OVCAR-3 ovarian): > 100 µM
- TGI (OVCAR-3 ovarian): > 100 µM
- GI50 (OVCAR-4 ovarian): > 100 µM
- TGI (OVCAR-4 ovarian): > 100 µM
- GI50 (OVCAR-5 ovarian): > 100 µM
- TGI (OVCAR-5 ovarian): > 100 µM
- GI50 (OVCAR-8 ovarian): > 100 µM
- TGI (OVCAR-8 ovarian): > 100 µM
- GI50 (PC-3 prostate): > 100 µM
- TGI (PC-3 prostate): > 100 µM
- GI50 (RPMI-8226 leukemia): > 100 µM
- TGI (RPMI-8226 leukemia): > 100 µM
- GI50 (RXF 393 renal): > 100 µM
- TGI (RXF 393 renal): > 100 µM
- GI50 (SF-268 CNS): > 100 µM
- TGI (SF-268 CNS): > 100 µM
- GI50 (SF-295 CNS): > 100 µM
- TGI (SF-295 CNS): > 100 µM
- GI50 (SF-539 CNS): > 100 µM
- TGI (SF-539 CNS): > 100 µM
- GI50 (SK-MEL-2 melanoma): > 100 µM
- TGI (SK-MEL-2 melanoma): > 100 µM
- GI50 (SK-MEL-28 melanoma): > 100 µM
- TGI (SK-MEL-28 melanoma): > 100 µM
- GI50 (SK-MEL-5 melanoma): > 100 µM
- TGI (SK-MEL-5 melanoma): > 100 µM
- GI50 (SK-OV-3 ovarian): > 100 µM
- TGI (SK-OV-3 ovarian): > 100 µM
- GI50 (SN12C renal): > 100 µM
- TGI (SN12C renal): > 100 µM
- GI50 (SNB-19 CNS): > 100 µM
- TGI (SNB-19 CNS): > 100 µM
- GI50 (SNB-75 CNS): > 100 µM
- TGI (SNB-75 CNS): > 100 µM
- GI50 (SW-620 colon): > 100 µM
- TGI (SW-620 colon): > 100 µM
- GI50 (T-47D breast): > 100 µM
- TGI (T-47D breast): > 100 µM
- GI50 (TK-10 renal): > 100 µM
- TGI (TK-10 renal): > 100 µM
- GI50 (U251 CNS): > 100 µM
- TGI (U251 CNS): > 100 µM
- GI50 (UACC-257 melanoma): > 100 µM
- TGI (UACC-257 melanoma): > 100 µM
- GI50 (UACC-62 melanoma): > 100 µM
- TGI (UACC-62 melanoma): > 100 µM
- GI50 (UO-31 renal): > 100 µM
- TGI (UO-31 renal): > 100 µM
